# From ChEMBL document CHEMBL5154761, “Design, synthesis, and evaluation of 9-(pyrimidin-2-yl)-9H-carbazole derivatives disrupting mitochondrial homeostasis in human lung adenocarcinoma” (Eur J Med Chem, 2022)
# Calls of active or inactive are those of the source. No cut-off for these calls is given here.
# Legend:
# [1] = test system: A549; assay: Cytotoxicity against human A549 cells assessed as cell growth inhibition incubated for 48 hrs by MTT assay; format: functional, cell-based; details: A549, 48 h
# [2] = test system: A549; assay: Induction of cell cycle arrest in human A549 cells assessed as accumulation at G2/M phase at 10 uM incubated for 48 hrs by PI staining based flow cytometry analysis; format: functional
# [3] = test system: A549; assay: Cytotoxicity against human A549 cells assessed as cell growth inhibition at 10 uM incubated for 48 hrs by MTT assay relative to control; format: functional
SMILES,IC50 [1] [µM],Activity [2],inhibition at 10 µM [3] [%]
O=C(OCc1ccccc1)c1cccc2c3ccccc3n(-c3ncccn3)c12,5.23,Active,–
O=C(c1ccc(Cl)cc1)c1cccc2c3ccccc3n(-c3ncccn3)c12,6.69,Active,50
O=C(c1cccs1)c1cccc2c3ccccc3n(-c3ncccn3)c12,4.02,Active,< 50
COc1ccccc1C(=O)c1cccc2c3ccccc3n(-c3ncccn3)c12,4.02,Active,< 50
O=C(c1ccc(Br)cc1)c1cccc2c3ccccc3n(-c3ncccn3)c12,7.5,Active,50
O=C(c1cccc(Cl)c1)c1cccc2c3ccccc3n(-c3ncccn3)c12,7.19,Active,50
COc1ccc(C(=O)c2cccc3c4ccccc4n(-c4ncccn4)c23)cc1OC,3.1,Active,50
O=C(O)c1cccc2c3ccccc3n(-c3ncccn3)c12,15.5,–,–
CCOC(=O)c1cccc2c3ccccc3n(-c3ncccn3)c12,–,–,50
Cc1c2ccncc2c(C)c2c1[nH]c1ccccc12 [ELLIPTECINE],3.45,–,–
O=C(c1ccccc1)c1cccc2c3ccccc3n(-c3ncccn3)c12,5.32,Active,50
O=C(c1ccc(F)cc1)c1cccc2c3ccccc3n(-c3ncccn3)c12,2.58,Active,< 50
